Data on 14 molecules can be found in US20230399327A1, “HIGH ACTIVITY HPK1 KINASE INHIBITOR” (ADLAI NORTYE BIOPHARMA CO., LTD., priority 2020, published 2023).

The term pIC50 denotes −log10 of the IC50, conventionally taken in molar units.

Each structure is given as a SMILES string. pIC50: −log10 of the molar value. A value given as a limit tells only on which side of the number the result lay.

Sequence of HPK1 kinase (Q92918 whole entry): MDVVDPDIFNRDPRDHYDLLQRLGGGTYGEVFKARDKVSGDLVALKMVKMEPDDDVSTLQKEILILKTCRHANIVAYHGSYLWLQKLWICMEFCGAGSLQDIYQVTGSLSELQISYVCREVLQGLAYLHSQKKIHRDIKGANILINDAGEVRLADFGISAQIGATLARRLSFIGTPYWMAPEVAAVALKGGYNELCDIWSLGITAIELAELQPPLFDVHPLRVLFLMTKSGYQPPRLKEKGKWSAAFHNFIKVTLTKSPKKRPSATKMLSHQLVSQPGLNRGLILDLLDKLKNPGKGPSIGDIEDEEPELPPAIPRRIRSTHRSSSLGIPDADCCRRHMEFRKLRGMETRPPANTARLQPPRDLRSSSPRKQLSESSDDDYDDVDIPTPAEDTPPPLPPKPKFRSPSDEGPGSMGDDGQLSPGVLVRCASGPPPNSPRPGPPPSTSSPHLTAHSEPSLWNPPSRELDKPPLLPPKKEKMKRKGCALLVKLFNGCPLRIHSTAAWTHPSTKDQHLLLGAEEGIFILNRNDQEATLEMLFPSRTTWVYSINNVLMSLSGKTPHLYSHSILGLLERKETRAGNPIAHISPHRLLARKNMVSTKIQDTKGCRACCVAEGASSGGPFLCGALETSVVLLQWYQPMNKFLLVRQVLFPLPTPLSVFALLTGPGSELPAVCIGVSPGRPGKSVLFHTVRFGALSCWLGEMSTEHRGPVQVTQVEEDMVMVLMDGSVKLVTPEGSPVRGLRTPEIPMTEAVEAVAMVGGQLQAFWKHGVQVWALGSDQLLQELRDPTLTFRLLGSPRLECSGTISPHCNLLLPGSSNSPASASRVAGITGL

For the experiment, the target named is HPK1 kinase (Homo sapiens (Human), UniProt Q92918). Kind of experiment: HPK1 kinase activity inhibition (ADP-Glo Kinase Assay). It is filed as biochemical. Particulars: HPK1, MBP substrate, ATP, 25° C. 60 min. As for the experimental part:
Test Example 1: Detection of Compound's Ability to Inhibit HPK1 Kinase Activity (Method 1)
The specific operation is as follows: configure the enzymatic reaction system buffer (10 mM MOPS, pH 7.2, 5 mM β-glycerol-phosphate, 10 mM MgCl2, 0.8 mM EDTA, 2 mM EGTA, 0.1 mM DTT); the test compound (1 mM the compound stock solution in DMSO) was diluted with buffer to the highest concentration of 60 uM (containing 6% DMSO), and the compound with a concentration of 60 μM was initially diluted 5 times with a buffer containing 6% DMSO for a total of 8 points of gradient concentration; then dilute HPK1 kinase to 30 nM in buffer. Add 2 μl of HPK1 kinase diluent to each well of a Greiner 384-well microplate (Cat. No. 784075), and add 2 μl of buffer to the control well; add 1 μl of the diluted compound to the reaction well after brief centrifugation, and add 1 μl buffer solution containing 6% DMSO to the control well; after short centrifugation, place in a 25° C. constant temperature incubator (Shanghai Yiheng Scientific Instrument Co., Ltd., Cat. No.: LRH-150) and incubate for 20 minutes. Add 3 μl of reaction substrate (10 μM MBP and 20 μM ATP dissolved in distilled water) to each well, briefly centrifuge and incubate in a constant temperature incubator at 25° C. for 60 min, and use ADP-Glo Kinase Assay Kit to detect the enzymatic reaction activity, ADP-Glo Kinase Assay Kit detection is carried out according to the operating instructions of the kit. Data are described using the half maximal inhibitory concentration IC50 of the compound.
On the technique in general: ADP-Glo turns the ADP formed in a reaction into a luminescent signal.
The molecule `COc1nc2c(cc1Nc1ncc3cccc(NCc4ccccc4)c3n1)CN(C)CC2` [Example 38, N8-Benzyl-N2-(2-methoxy-6-methyl-5,6,7,8-tetrahydro-1,6-naphthyridin-3-yl)quinazoline-2,8-diamine] showed a pIC50 of 9.39.

In the case of `COc1nc2c(cc1Nc1ncc3cccc(NCC(C)C)c3n1)CN(C)CC2` [Example 39, N8-isobutyl-N2-(2-methoxy-6-methyl-5,6,7,8-tetrahydro-1,6-naphthyridin-3-yl)quinazoline-2,8-diamine], the pIC50 is > 10.00.

Take `COc1nc2c(cc1Nc1ncc3cccc(-c4cccc(Cl)n4)c3n1)CN(C)CC2` [Example 40, 8-(6-chloropyridin-2-yl)-N-(2-methoxy-6-methyl-5,6,7,8-tetrahydro-1,6-naphthyridin-3-yl)quinazolin-2-amine]: the pIC50 is > 10.00.

On to `COc1nc2c(cc1Nc1ncc3ccnc(NCC(C)(C)C)c3n1)CN(C)CC2` [Example 41, N2-(2-methoxy-6-methyl-5,6,7,8-tetrahydro-1,6-naphthyridin-3-yl)-N8-neopentylpyrido[3,4-d]pyrimidine-2,8-diamine], for which the pIC50 is > 10.00.

`COc1nc2c(cc1Nc1ncc3ccnc(N[C@@H](C)C(C)(C)C)c3n1)CN(C)CC2` [Example 42, (S)—N8-(3,3-dimethylbut-2-yl)-N2-(2-methoxy-6-methyl-5,6,7,8-tetrahydro-1,6-naphthyridin-3-yl)pyrido[3,4-d]pyrimidine-2,8-diamine]: the pIC50 was > 10.00.

Take `COc1nc2c(cc1Nc1ncc3ccnc(-c4cc(C)nn4C)c3n1)CN(C)CC2` [Example 43, 8-(1,3-Dimethyl-1H-pyrazol-5-yl)-N-(2-methoxy-6-methyl-5,6,7,8-tetrahydro-1,6-naphthyridin-3-yl)pyrido[3,4-d]pyrimidin-2-amine]: the pIC50 is 8.33.

Regarding `CCOc1nc2c(cc1Nc1ncc3cccc(-c4ccccc4OC)c3n1)CN(C)CC2` [Example 44, N-(2-ethoxy-6-methyl-5,6,7,8-tetrahydro-1,6-naphthyridin-3-yl)-8-(2-methoxyphenyl)quinazolin-2-amine], the pIC50 was > 10.00.

For `COc1ccccc1-c1cccc2cnc(Nc3cnc4c(c3)CN(C)CC4)nc12` [Example 45, 8-(2-methoxyphenyl)-N-(6-methyl-5,6,7,8-tetrahydro-1,6-naphthyridin-3-yl)quinazolin-2-amine], the pIC50 was > 10.00.

As to `COc1ccccc1-c1cccc2cnc(Nc3cc4c(nc3C)CCN(C)C4)nc12` [Example 46, N-(2,6-dimethyl-5,6,7,8-tetrahydro-1,6-naphthyridin-3-yl)-8-(2-methoxyphenyl)quinazoline-2-amine], the pIC50 was 9.82.

As to `CCOc1nc2c(cc1Nc1ncc3cccc(-c4cccnc4OC)c3n1)CN(C)CC2` [Example 47, N-(2-ethoxy-6-methyl-5,6,7,8-tetrahydro-1,6-naphthyridin-3-yl)-8-(2-methoxypyridin-3-yl) quinazolin-2-amine], the pIC50 is 8.56.

In turn, `COc1ncccc1-c1cccc2cnc(Nc3cc4c(nc3C)CCN(C)C4)nc12` [Example 48, N-(2,6-dimethyl-5,6,7,8-tetrahydro-1,6-naphthyridin-3-yl)-8-(2-methoxypyridin-3-yl)quinazolin-2-amine] gave a pIC50 of 8.71.

In turn, `CN1CCc2[nH]c(=O)c(Nc3ncc4ccnc(N5CCOCC5)c4n3)cc2C1` [Example 49, 6-methyl-3-((8-morpholinopyrido[3,4-d]pyrimidin-2-yl)amino)-5,6,7,8-tetrahydro-1,6-naphthyridine-2(1H)-one] showed a pIC50 of 7.57.

`CCOc1nc2c(cc1Nc1ncc3ccnc(NCC(C)(C)C)c3n1)CN(C)CC2` [Example 52, N2-(2-ethoxy-6-methyl-5,6,7,8-tetrahydro-1,6-naphthyridin-3-yl)-N8-neopentylpyrido[3,4-d]pyrimidine-2,8-diamine]: the pIC50 was > 10.00.

Consider `COc1nc2c(cc1Nc1ncc3cccc(-c4cnn(C)c4C)c3n1)CN(C)CC2` [Example 53, 8-(1,5-dimethyl-1H-pyrazol-4-yl)-N-(2-methoxy-6-methyl-5,6,7,8-tetrahydro-1,6-Naphthyridin-3-yl)quinazolin-2-amine], for which the pIC50 is > 10.00.
